According to US10227331B2 (priority 2015, dated 2019):
pIC50: −log10 of the molar value.

Assays:
[1] = test system: P. aeruginosa expressing IMP-1, efflux+ (MB9798); format: cell-based, Pseudomonas aeruginosa; conditions: for P. aeruginosa expressing IMP-1, efflux+ (MB9798) MITC95: imipenem at 2 μg/mL, in the presence of a class A, C, D serine β-lactamase inhibitor closely related to relebactam; for Efflux ratio: ratio MITC95 PA_9798/MITC95 PA_9799
Description: (§1) The strain background is Pseudomonas aeruginosa PAO1.

[2] = test system: P. aeruginosa expressing IMP-1, efflux− (MB9799); test: Efflux: concentration of MBL inhibitor which restores susceptibility to imipenem; format: cell-based, Pseudomonas aeruginosa; conditions: imipenem at 2 μg/mL, in the presence of a class A, C, D serine β-lactamase inhibitor closely related to relebactam
Description: as §1

IMP-1 = IMP-1 (Serratia marcescens, UniProt P52699); test: biochemical; format: biochemical; conditions: CCF2-FA substrate, 2 hours at 25° C; read-out: IMP-1 IC50
Summary of the method: (§2)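 Class B activity is measured in the presence of compound by fluorescence with CCF2-FA after a 2-hour incubation at 25° C. IC50 is taken from a 4-parameter fit of semi-logarithmic dose-response data.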

NDM-1 = NDM-1 (Klebsiella pneumoniae, UniProt C7C422); test: biochemical; format: biochemical; conditions: CCF2-FA substrate, 2 hours at 25° C; read-out: NDM-1 IC50
Summary of the method: as §2

VIM-1 = VIM-1 (Pseudomonas aeruginosa (strain ATCC 15692 / DSM 22644 / CIP 104116 / JCM 14847 / LMG 12228 / 1C / PRS 101 / PAO1), UniProt A0A0F7KYQ8); test: biochemical; conditions: CCF2-FA substrate, 2 hours at 25° C
Summary of the method: as §2

[3] = test system: Klebsiella pneumoniae expressing VIM-1 (IHMA599644); format: cell-based; conditions: VIM-1 (IHMA599644), with imipenem 1 μg/ml, 95% inhibition of bacterial growth
Summary of the method: (§3)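 Clinical strains grown overnight on blood agar, then diluted 1:100 in 1.1× CAMHB and exposed to test compound with imipenem at 1 μg/ml. Incubation was 22–24 h at 35° C; growth was read by absorbance to find the compound concentration restoring imipenem susceptibility.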

[4] = test system: Escherichia coli expressing NDM-1 (CLB30005, CLB30016); format: cell-based; conditions: NDM-1 (CLB30016), with imipenem 1 μg/ml, 95% inhibition of bacterial growth
Summary of the method: as §3

[5] = test system: Serratia marcescens expressing IMP-1 (CL5741); format: cell-based; conditions: IMP-1 (CL5741), with imipenem 1 μg/ml, 95% inhibition of bacterial growth
Summary of the method: as §3

IMP-1, sequence (P52699 whole entry, looked up, species assumed): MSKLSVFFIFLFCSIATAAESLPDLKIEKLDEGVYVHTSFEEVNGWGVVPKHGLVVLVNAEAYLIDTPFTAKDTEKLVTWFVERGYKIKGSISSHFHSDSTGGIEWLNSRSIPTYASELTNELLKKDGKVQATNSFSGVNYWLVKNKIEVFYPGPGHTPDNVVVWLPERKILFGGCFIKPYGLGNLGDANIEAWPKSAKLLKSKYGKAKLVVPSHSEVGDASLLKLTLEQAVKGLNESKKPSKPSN
NDM-1, sequence (C7C422 whole entry, looked up, species assumed): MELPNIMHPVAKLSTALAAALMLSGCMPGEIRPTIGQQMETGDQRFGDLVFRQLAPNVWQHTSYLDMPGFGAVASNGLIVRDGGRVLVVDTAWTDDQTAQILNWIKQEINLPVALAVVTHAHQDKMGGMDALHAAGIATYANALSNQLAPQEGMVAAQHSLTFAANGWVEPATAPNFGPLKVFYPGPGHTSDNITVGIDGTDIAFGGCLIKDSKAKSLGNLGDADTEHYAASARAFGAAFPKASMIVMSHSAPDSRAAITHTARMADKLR

Nc1nc2c(-c3ccc(S(=O)(=O)C[C@@H](N)CO)c(S(N)(=O)=O)c3-c3nn[nH]n3)cccc2[nH]1 [Example 274, 3-(2-amino-1H-benzo[d]imidazol-4-yl)-6-((S)-2-amino-3-hydroxypropylsulfonyl)-2-(2H-tetrazol-5-yl)benzenesulfonamide]
P. aeruginosa expressing IMP-1, efflux+ (MB9798) MITC95 [1]: 0.7813 µM
Efflux ratio [1]: 1.00
P. aeruginosa expressing IMP-1, efflux− (MB9799) MITC95 [2]: 0.7813 µM
pIC50 (IMP-1): 9.37
pIC50 (NDM-1): 9.95
pIC50 (VIM-1): 9.69
Klebsiella pneumoniae MITC95 [3]: 1.563 µM
Escherichia coli MITC95 [4]: 0.7813 µM
Serratia marcescens MITC95 [5]: 1.563 µM

C[C@@H](N)CS(=O)(=O)c1ccc(-c2cccc3c2nc(N)n3C)c(-c2nn[nH]n2)c1S(N)(=O)=O [Example 275, 3-(2-amino-1-methyl-1H-benzo[d]imidazol-4-yl)-6-((R)-2-aminopropylsulfonyl)-2-(2H-tetrazol-5-yl)benzenesulfonamide]
P. aeruginosa expressing IMP-1, efflux+ (MB9798) MITC95 [1]: 2.563 µM
Efflux ratio [1]: 2.88
P. aeruginosa expressing IMP-1, efflux− (MB9799) MITC95 [2]: 0.8906 µM
pIC50 (IMP-1): 9.08
pIC50 (NDM-1): 9.24
pIC50 (VIM-1): 9.16
Klebsiella pneumoniae MITC95 [3]: 1.781 µM
Escherichia coli MITC95 [4]: 0.5 µM
Serratia marcescens MITC95 [5]: 0.8906 µM

C[C@H](N)CS(=O)(=O)c1ccc(-c2cccc3c2nc(N)n3C)c(-c2nn[nH]n2)c1S(N)(=O)=O [Example 276, 3-(2-amino-1-methyl-1H-benzo[d]imidazol-4-yl)-6-((S)-2-aminopropylsulfonyl)-2-(2H-tetrazol-5-yl)benzenesulfonamide]
P. aeruginosa expressing IMP-1, efflux+ (MB9798) MITC95 [1]: 1.563 µM
Efflux ratio [1]: 2.00
P. aeruginosa expressing IMP-1, efflux− (MB9799) MITC95 [2]: 0.7813 µM
pIC50 (IMP-1): 9.54
pIC50 (NDM-1): 9.62
pIC50 (VIM-1): 9.67
Klebsiella pneumoniae MITC95 [3]: 3.125 µM
Escherichia coli MITC95 [4]: 0.7813 µM
Serratia marcescens MITC95 [5]: 0.7813 µM

C[C@H](CN)S(=O)(=O)c1ccc(-c2cccc3nc(N)[nH]c23)c(-c2nn[nH]n2)c1S(N)(=O)=O [Example 277, 3-(2-amino-3H-benzo[d]imidazol-4-yl)-6-((R)-1-aminopropan-2-ylsulfonyl)-2-(2H-tetrazol-5-yl)benzenesulfonamide]
P. aeruginosa expressing IMP-1, efflux+ (MB9798) MITC95 [1]: 1.563 µM
Efflux ratio [1]: 2.00
P. aeruginosa expressing IMP-1, efflux− (MB9799) MITC95 [2]: 0.7813 µM
pIC50 (IMP-1): 8.86
pIC50 (NDM-1): 9.28
pIC50 (VIM-1): 9.44
Klebsiella pneumoniae MITC95 [3]: 1.563 µM
Escherichia coli MITC95 [4]: 0.3906 µM
Serratia marcescens MITC95 [5]: 0.7813 µM

C[C@H](CN)S(=O)(=O)c1ccc(-c2cccc3c2nc(N)n3C)c(-c2nn[nH]n2)c1S(N)(=O)=O [Example 279, 3-(2-amino-1-methyl-1H-benzo[d]imidazol-4-yl)-6-((R)-1-aminopropan-2-ylsulfonyl)-2-(2H-tetrazol-5-yl)benzenesulfonamide]
P. aeruginosa expressing IMP-1, efflux+ (MB9798) MITC95 [1]: 3.125 µM
Efflux ratio [1]: 4.00
P. aeruginosa expressing IMP-1, efflux− (MB9799) MITC95 [2]: 0.7813 µM
pIC50 (IMP-1): 9.16
pIC50 (NDM-1): 9.09
pIC50 (VIM-1): 9.33
Klebsiella pneumoniae MITC95 [3]: 1.563 µM
Escherichia coli MITC95 [4]: 0.3906 µM
Serratia marcescens MITC95 [5]: 1.563 µM

C[C@@H](CN)S(=O)(=O)c1ccc(-c2cccc3c2nc(N)n3C)c(-c2nn[nH]n2)c1S(N)(=O)=O [Example 280, 3-(2-amino-1-methyl-1H-benzo[d]imidazol-4-yl)-6-((S)-1-aminopropan-2-ylsulfonyl)-2-(2H-tetrazol-5-yl)benzenesulfonamide]
P. aeruginosa expressing IMP-1, efflux+ (MB9798) MITC95 [1]: 3.125 µM
Efflux ratio [1]: 4.00
P. aeruginosa expressing IMP-1, efflux− (MB9799) MITC95 [2]: 0.7813 µM
pIC50 (IMP-1): 9.02
pIC50 (NDM-1): 9.65
pIC50 (VIM-1): 9.35
Klebsiella pneumoniae MITC95 [3]: 1.563 µM
Escherichia coli MITC95 [4]: 0.3906 µM
Serratia marcescens MITC95 [5]: 0.7813 µM

NC[C@H](O)CS(=O)(=O)c1ccc(-c2cccc3[nH]c(N)nc23)c(-c2nn[nH]n2)c1S(N)(=O)=O [Example 282, 3-(2-amino-1H-benzo[d]imidazol-4-yl)-6-((S)-3-amino-2-hydroxypropylsulfonyl)-2-(2H-tetrazol-5-yl)benzenesulfonamide]
P. aeruginosa expressing IMP-1, efflux+ (MB9798) MITC95 [1]: 0.418 µM
Efflux ratio [1]: 1.00
P. aeruginosa expressing IMP-1, efflux− (MB9799) MITC95 [2]: 0.418 µM
pIC50 (IMP-1): 9.11
pIC50 (NDM-1): 9.80
pIC50 (VIM-1): 9.55
Klebsiella pneumoniae MITC95 [3]: 0.8359 µM
Escherichia coli MITC95 [4]: 0.3438 µM
Serratia marcescens MITC95 [5]: 0.5156 µM

CCn1c(N)nc2c(-c3ccc(S(=O)(=O)C4CNC4)c(S(N)(=O)=O)c3-c3nn[nH]n3)cccc21 [Example 283, 3-(2-amino-1-ethyl-1H-benzo[d]imidazol-4-yl)-6-(azetidin-3-ylsulfonyl)-2-(2H-tetrazol-5-yl)benzenesulfonamide]
P. aeruginosa expressing IMP-1, efflux+ (MB9798) MITC95 [1]: 6.25 µM
Efflux ratio [1]: 4.00
P. aeruginosa expressing IMP-1, efflux− (MB9799) MITC95 [2]: 1.563 µM
pIC50 (IMP-1): 9.30
pIC50 (NDM-1): 9.93
pIC50 (VIM-1): 9.46
Klebsiella pneumoniae MITC95 [3]: 1.563 µM
Escherichia coli MITC95 [4]: 0.3906 µM
Serratia marcescens MITC95 [5]: 1.563 µM

CCn1c(N)nc2c(-c3ccc(S(=O)(=O)CCN)c(S(N)(=O)=O)c3-c3nn[nH]n3)cccc21 [Example 284, 3-(2-amino-1-ethyl-1H-benzo[d]imidazol-4-yl)-6-(2-aminoethylsulfonyl)-2-(2H-tetrazol-5-yl)benzenesulfonamide]
P. aeruginosa expressing IMP-1, efflux+ (MB9798) MITC95 [1]: 3.125 µM
Efflux ratio [1]: 4.00
P. aeruginosa expressing IMP-1, efflux− (MB9799) MITC95 [2]: 0.7813 µM
pIC50 (IMP-1): 9.49
pIC50 (NDM-1): 9.54
pIC50 (VIM-1): 9.29
Klebsiella pneumoniae MITC95 [3]: 1.563 µM
Escherichia coli MITC95 [4]: 0.3906 µM
Serratia marcescens MITC95 [5]: 1.563 µM

C[C@H](CN)S(=O)(=O)c1ccc(-c2cccc3sc(N)nc23)c(-c2nn[nH]n2)c1S(N)(=O)=O [Example 285, 3-(2-aminobenzo[d]thiazol-4-yl)-6-((R)-1-aminopropan-2-ylsulfonyl)-2-(2H-tetrazol-5-yl)benzenesulfonamide]
P. aeruginosa expressing IMP-1, efflux+ (MB9798) MITC95 [1]: 3.125 µM
Efflux ratio [1]: 4.00
P. aeruginosa expressing IMP-1, efflux− (MB9799) MITC95 [2]: 0.7813 µM
pIC50 (IMP-1): 9.27
pIC50 (NDM-1): 9.43
pIC50 (VIM-1): 9.44
Klebsiella pneumoniae MITC95 [3]: 1.563 µM
Escherichia coli MITC95 [4]: 3.125 µM
Serratia marcescens MITC95 [5]: 1.563 µM

C[C@@H](CN)S(=O)(=O)c1ccc(-c2cccc3sc(N)nc23)c(-c2nn[nH]n2)c1S(N)(=O)=O [Example 286, 3-(2-aminobenzo[d]thiazol-4-yl)-6-((S)-1-aminopropan-2-ylsulfonyl)-2-(2H-tetrazol-5-yl)benzenesulfonamide]
P. aeruginosa expressing IMP-1, efflux+ (MB9798) MITC95 [1]: 1.563 µM
Efflux ratio [1]: 2.00
P. aeruginosa expressing IMP-1, efflux− (MB9799) MITC95 [2]: 0.7813 µM
pIC50 (IMP-1): 9.49
pIC50 (NDM-1): 10.03
pIC50 (VIM-1): 9.58
Klebsiella pneumoniae MITC95 [3]: 1.563 µM
Escherichia coli MITC95 [4]: 0.7813 µM
Serratia marcescens MITC95 [5]: 0.7813 µM

Nc1c(-c2ccc(S(=O)(=O)C3CNC3)c(S(N)(=O)=O)c2-c2nn[nH]n2)cccc1S(N)(=O)=O [Example 287, 2′-amino-4-(azetidin-3-ylsulfonyl)-2-(2H-tetrazol-5-yl)biphenyl-3,3′-disulfonamide]
P. aeruginosa expressing IMP-1, efflux+ (MB9798) MITC95 [1]: 6.25 µM
Efflux ratio [1]: 2.00
P. aeruginosa expressing IMP-1, efflux− (MB9799) MITC95 [2]: 3.125 µM
pIC50 (IMP-1): 8.53
pIC50 (NDM-1): 9.41
pIC50 (VIM-1): 9.22
Klebsiella pneumoniae MITC95 [3]: 3.125 µM
Escherichia coli MITC95 [4]: 3.125 µM
Serratia marcescens MITC95 [5]: 3.125 µM

NCCNC(=O)c1cccc(-c2ccc(S(=O)(=O)C3CNC3)c(S(N)(=O)=O)c2-c2nn[nH]n2)c1N [Example 288, 2-amino-N-(2-aminoethyl)-4′-(azetidin-3-ylsulfonyl)-5′-sulfamoyl-6′-(2H-tetrazol-5-yl)biphenyl-3-carboxamide]
P. aeruginosa expressing IMP-1, efflux+ (MB9798) MITC95 [1]: 3.125 µM
Efflux ratio [1]: 4.00
P. aeruginosa expressing IMP-1, efflux− (MB9799) MITC95 [2]: 0.7813 µM
pIC50 (IMP-1): 8.01
pIC50 (NDM-1): 8.78
pIC50 (VIM-1): 9.07
Klebsiella pneumoniae MITC95 [3]: 1.563 µM
Escherichia coli MITC95 [4]: 3.125 µM
Serratia marcescens MITC95 [5]: 3.125 µM
